From PubChem BioAssay (NCI)
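At the GI50, growth is halved. TGI: concentration producing complete growth inhibition.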

Experiments:
Assay in all cases: inhibition of tumour cell growth, NCI panel, 384-well format
A498 renal = test system: A498 renal
SF-268 CNS = test system: SF-268 CNS
CCRF-CEM leukemia = test system: CCRF-CEM leukemia
NCI/ADR-RES ovarian = test system: NCI/ADR-RES ovarian
OVCAR-4 ovarian = test system: OVCAR-4 ovarian
OVCAR-3 ovarian = test system: OVCAR-3 ovarian
EKVX NSCLC = test system: EKVX NSCLC
SNB-19 CNS = test system: SNB-19 CNS
K-562 leukemia = test system: K-562 leukemia
KM12 colon = test system: KM12 colon
HCC-2998 colon = test system: HCC-2998 colon
NCI-H322M lung = test system: NCI-H322M lung
CAKI-1 renal = test system: CAKI-1 renal
UACC-257 melanoma = test system: UACC-257 melanoma
RPMI-8226 leukemia = test system: RPMI-8226 leukemia
MOLT-4 leukemia = test system: MOLT-4 leukemia
NCI-H522 lung = test system: NCI-H522 lung
SW-620 colon = test system: SW-620 colon
OVCAR-8 ovarian = test system: OVCAR-8 ovarian
NCI-H226 lung = test system: NCI-H226 lung
SF-295 CNS = test system: SF-295 CNS
SF-539 CNS = test system: SF-539 CNS
ACHN renal = test system: ACHN renal
M14 melanoma = test system: M14 melanoma
SK-MEL-2 melanoma = test system: SK-MEL-2 melanoma
A549 NSCLC = test system: A549 NSCLC
HOP-62 NSCLC = test system: HOP-62 NSCLC
UO-31 renal = test system: UO-31 renal
HS 578T breast = test system: HS 578T breast
PC-3 prostate = test system: PC-3 prostate
OVCAR-5 ovarian = test system: OVCAR-5 ovarian
MDA-MB-435 melanoma = test system: MDA-MB-435 melanoma
DU-145 prostate = test system: DU-145 prostate
HOP-92 NSCLC = test system: HOP-92 NSCLC
UACC-62 melanoma = test system: UACC-62 melanoma
RXF 393 renal = test system: RXF 393 renal
U251 glioblastoma = test system: U251 glioblastoma
BT-549 breast = test system: BT-549 breast
MDA-MB-231 breast = test system: MDA-MB-231 breast
SN12C renal = test system: SN12C renal
786-0 renal = test system: 786-0 renal
IGROV1 ovarian = test system: IGROV1 ovarian
HCT-116 colon = test system: HCT-116 colon
MALME-3M melanoma = test system: MALME-3M melanoma
NCI-H23 lung = test system: NCI-H23 lung
T-47D breast = test system: T-47D breast
LOX IMVI melanoma = test system: LOX IMVI melanoma
SK-OV-3 ovarian = test system: SK-OV-3 ovarian
SNB-75 CNS = test system: SNB-75 CNS
TK-10 renal = test system: TK-10 renal
HT29 colon = test system: HT29 colon
SK-MEL-28 melanoma = test system: SK-MEL-28 melanoma
HL-60(TB) leukemia = test system: HL-60(TB) leukemia
MCF7 breast = test system: MCF7 breast
SK-MEL-5 melanoma = test system: SK-MEL-5 melanoma
COLO 205 colon = test system: COLO 205 colon
SR leukemia = test system: SR leukemia
HCT-15 colon = test system: HCT-15 colon
MDA-MB-468 breast = test system: MDA-MB-468 breast
NCI-H460 NSCLC = test system: NCI-H460 NSCLC

SMILES: CC(=O)Nc1cccc(-n2c(=O)n(C3CC3)c(=O)c3c(Nc4ccc(I)cc4F)n(C)c(=O)c(C)c32)c1
- GI50 (A498 renal): 0.08 µM
- TGI (A498 renal): 4.52 µM
- GI50 (SF-268 CNS): 7.21 µM
- TGI (SF-268 CNS): > 56.4 µM
- GI50 (CCRF-CEM leukemia): 3.32 µM
- TGI (CCRF-CEM leukemia): 12.8 µM
- GI50 (NCI/ADR-RES ovarian): 1.32 µM
- TGI (NCI/ADR-RES ovarian): 8.35 µM
- GI50 (OVCAR-4 ovarian): 4.87 µM
- TGI (OVCAR-4 ovarian): 26.9 µM
- GI50 (OVCAR-3 ovarian): 4.65 µM
- TGI (OVCAR-3 ovarian): 21.4 µM
- GI50 (EKVX NSCLC): 0.309 µM
- TGI (EKVX NSCLC): 23.7 µM
- TGI (SNB-19 CNS): > 62.1 µM
- GI50 (K-562 leukemia): 0.0265 µM
- TGI (K-562 leukemia): 11.8 µM
- GI50 (KM12 colon): < 0.01 µM
- TGI (KM12 colon): 26.1 µM
- GI50 (HCC-2998 colon): < 0.01 µM
- TGI (HCC-2998 colon): < 0.0119 µM
- GI50 (NCI-H322M lung): < 0.0237 µM
- TGI (NCI-H322M lung): 3.6 µM
- GI50 (CAKI-1 renal): < 0.026 µM
- TGI (CAKI-1 renal): 12 µM
- GI50 (UACC-257 melanoma): < 0.01 µM
- TGI (UACC-257 melanoma): < 0.01 µM
- GI50 (RPMI-8226 leukemia): 0.423 µM
- TGI (RPMI-8226 leukemia): 4.84 µM
- GI50 (MOLT-4 leukemia): 3.11 µM
- TGI (MOLT-4 leukemia): 12.3 µM
- GI50 (NCI-H522 lung): 4.33 µM
- TGI (NCI-H522 lung): 37.4 µM
- GI50 (SW-620 colon): < 0.01 µM
- TGI (SW-620 colon): > 36 µM
- GI50 (OVCAR-8 ovarian): 2.88 µM
- TGI (OVCAR-8 ovarian): 36.1 µM
- GI50 (NCI-H226 lung): < 0.0432 µM
- TGI (NCI-H226 lung): 8.93 µM
- GI50 (SF-295 CNS): 23.1 µM
- TGI (SF-295 CNS): > 86.2 µM
- GI50 (SF-539 CNS): 0.0819 µM
- TGI (SF-539 CNS): 11 µM
- GI50 (ACHN renal): 0.576 µM
- TGI (ACHN renal): 20.4 µM
- GI50 (M14 melanoma): < 0.01 µM
- TGI (M14 melanoma): < 0.01 µM
- GI50 (SK-MEL-2 melanoma): < 0.01 µM
- TGI (SK-MEL-2 melanoma): < 0.01 µM
- GI50 (A549 NSCLC): 0.0103 µM
- TGI (A549 NSCLC): 4.68 µM
- GI50 (HOP-62 NSCLC): < 0.0113 µM
- TGI (HOP-62 NSCLC): 21.2 µM
- GI50 (UO-31 renal): 0.0541 µM
- TGI (UO-31 renal): 11.3 µM
- GI50 (HS 578T breast): 1.5 µM
- TGI (HS 578T breast): 24.9 µM
- GI50 (PC-3 prostate): > 35.7 µM
- TGI (PC-3 prostate): > 59.5 µM
- GI50 (OVCAR-5 ovarian): < 0.01 µM
- TGI (OVCAR-5 ovarian): 25.5 µM
- GI50 (MDA-MB-435 melanoma): < 0.01 µM
- TGI (MDA-MB-435 melanoma): 16.5 µM
- GI50 (DU-145 prostate): 1.96 µM
- TGI (DU-145 prostate): 44.4 µM
- GI50 (HOP-92 NSCLC): < 0.0172 µM
- TGI (HOP-92 NSCLC): 0.123 µM
- GI50 (UACC-62 melanoma): < 0.01 µM
- TGI (RXF 393 renal): 1.44 µM
- GI50 (U251 glioblastoma): 0.076 µM
- TGI (U251 glioblastoma): 23.2 µM
- GI50 (BT-549 breast): 0.846 µM
- TGI (BT-549 breast): 18.3 µM
- GI50 (MDA-MB-231 breast): < 0.0489 µM
- TGI (MDA-MB-231 breast): 1.99 µM
- GI50 (SN12C renal): 0.537 µM
- TGI (SN12C renal): 46.4 µM
- GI50 ([…]-0 renal): 1.2 µM
- TGI (786-0 renal): 20.1 µM
- GI50 (IGROV1 ovarian): < 0.01 µM
- TGI (IGROV1 ovarian): 5.48 µM
- GI50 (HCT-116 colon): < 0.01 µM
- TGI (HCT-116 colon): 0.0787 µM
- GI50 (MALME-3M melanoma): < 0.01 µM
- TGI (MALME-3M melanoma): < 0.01 µM
- GI50 (NCI-H23 lung): < 0.01 µM
- TGI (NCI-H23 lung): 0.137 µM
- GI50 (T-47D breast): > 25.1 µM
- TGI (T-47D breast): > 100 µM
- GI50 (LOX IMVI melanoma): < 0.01 µM
- TGI (LOX IMVI melanoma): 0.0443 µM
- TGI (SK-OV-3 ovarian): > 41.1 µM
- GI50 (SNB-75 CNS): 0.115 µM
- TGI (SNB-75 CNS): 5.76 µM
- TGI (TK-10 renal): > 45.6 µM
- GI50 (HT29 colon): < 0.01 µM
- TGI (HT29 colon): 15 µM
- GI50 (SK-MEL-28 melanoma): < 0.01 µM
- TGI (SK-MEL-28 melanoma): < 0.01 µM
- GI50 (HL-60(TB) leukemia): < 0.01 µM
- TGI (HL-60(TB) leukemia): < 0.01 µM
- GI50 (MCF7 breast): 7.68 µM
- TGI (MCF7 breast): 23.6 µM
- GI50 (SK-MEL-5 melanoma): < 0.01 µM
- TGI (SK-MEL-5 melanoma): < 0.01 µM
- GI50 (COLO 205 colon): < 0.01 µM
- TGI (COLO 205 colon): < 0.0106 µM
- GI50 (SR leukemia): 1.1 µM
- TGI (SR leukemia): 5.65 µM
- GI50 (HCT-15 colon): 0.238 µM
- TGI (HCT-15 colon): 14.7 µM
- GI50 (MDA-MB-468 breast): 5.03 µM
- TGI (MDA-MB-468 breast): 14.2 µM
- GI50 (NCI-H460 NSCLC): 3.88 µM
- TGI (NCI-H460 NSCLC): > 40.9 µM
